Results: ChEMBL document CHEMBL3739371, “Small molecules enhance functional O-mannosylation of Alpha-dystroglycan” (Bioorg Med Chem, 2015)
Activity calls are given as the source filed them. The rule behind the calls is not given here.

Key:
[1] = target: T1, Dystroglycan (Cricetulus griseus) (UniProt G3H8F4); assay: Increase of functional O-mannosylation of alpha-dystroglycan in Chinese hamster B421 cells after 24 hrs by fluorescence assay relative to control; type: cell-based
T1 sequence (whole entry): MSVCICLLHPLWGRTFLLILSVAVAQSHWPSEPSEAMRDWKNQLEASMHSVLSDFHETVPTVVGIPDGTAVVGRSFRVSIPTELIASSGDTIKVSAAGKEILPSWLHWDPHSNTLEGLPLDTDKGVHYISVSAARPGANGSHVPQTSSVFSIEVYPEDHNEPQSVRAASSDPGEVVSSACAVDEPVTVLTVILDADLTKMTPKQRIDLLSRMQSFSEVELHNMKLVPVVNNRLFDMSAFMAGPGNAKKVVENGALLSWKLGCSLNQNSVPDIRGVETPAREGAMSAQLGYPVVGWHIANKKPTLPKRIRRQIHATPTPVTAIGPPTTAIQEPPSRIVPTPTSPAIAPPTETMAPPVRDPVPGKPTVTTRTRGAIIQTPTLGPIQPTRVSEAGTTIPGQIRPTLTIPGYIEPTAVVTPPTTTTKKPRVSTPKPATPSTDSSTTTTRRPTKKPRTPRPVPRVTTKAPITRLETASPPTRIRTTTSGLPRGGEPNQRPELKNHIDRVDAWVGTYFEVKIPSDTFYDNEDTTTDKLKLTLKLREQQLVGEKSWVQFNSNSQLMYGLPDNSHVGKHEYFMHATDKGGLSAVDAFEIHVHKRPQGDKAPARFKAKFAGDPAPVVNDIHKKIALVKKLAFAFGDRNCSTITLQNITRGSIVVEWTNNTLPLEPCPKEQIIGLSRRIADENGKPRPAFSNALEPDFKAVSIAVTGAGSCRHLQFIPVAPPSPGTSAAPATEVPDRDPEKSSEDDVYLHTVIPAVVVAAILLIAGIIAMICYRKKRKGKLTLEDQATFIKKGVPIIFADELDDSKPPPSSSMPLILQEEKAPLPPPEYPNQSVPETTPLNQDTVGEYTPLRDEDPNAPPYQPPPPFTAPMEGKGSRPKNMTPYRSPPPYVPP

[2] = target: T2, Dystroglycan 1 (Mus musculus) (UniProt Q62165); assay: Increase of functional O-mannosylation of alpha-dystroglycan in mouse C2C12 cells expressing myogenin after 48 hrs by immunofluorescence assay; type: cell-based
T2 sequence (whole entry): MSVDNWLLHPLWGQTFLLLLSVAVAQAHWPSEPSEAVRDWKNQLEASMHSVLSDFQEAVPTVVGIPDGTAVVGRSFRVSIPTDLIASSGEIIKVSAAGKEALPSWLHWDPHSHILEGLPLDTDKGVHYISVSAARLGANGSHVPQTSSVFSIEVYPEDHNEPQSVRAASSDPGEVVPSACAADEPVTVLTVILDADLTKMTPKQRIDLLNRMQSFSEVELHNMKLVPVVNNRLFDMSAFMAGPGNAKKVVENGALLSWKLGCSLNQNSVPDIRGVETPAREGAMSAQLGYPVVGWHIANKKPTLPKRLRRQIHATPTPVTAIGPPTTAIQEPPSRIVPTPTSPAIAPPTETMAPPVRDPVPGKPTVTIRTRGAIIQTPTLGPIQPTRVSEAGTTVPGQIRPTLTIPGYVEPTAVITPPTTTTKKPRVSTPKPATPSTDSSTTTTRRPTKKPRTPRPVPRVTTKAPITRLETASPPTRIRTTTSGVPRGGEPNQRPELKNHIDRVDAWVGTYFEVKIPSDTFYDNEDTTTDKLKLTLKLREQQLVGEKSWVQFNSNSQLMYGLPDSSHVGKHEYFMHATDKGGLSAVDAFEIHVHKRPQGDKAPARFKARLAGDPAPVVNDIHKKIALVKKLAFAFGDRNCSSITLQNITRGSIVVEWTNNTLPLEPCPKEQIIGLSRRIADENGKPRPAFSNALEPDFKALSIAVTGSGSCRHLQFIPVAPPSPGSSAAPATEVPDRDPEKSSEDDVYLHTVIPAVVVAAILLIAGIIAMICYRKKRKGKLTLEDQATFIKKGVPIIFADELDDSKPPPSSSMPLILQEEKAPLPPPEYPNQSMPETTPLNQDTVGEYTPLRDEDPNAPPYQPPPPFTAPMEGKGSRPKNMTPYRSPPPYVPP

[3] = target: T3, Dystroglycan 1 (Homo sapiens) (UniProt Q14118); assay: Increase of functional O-mannosylation of alpha-dystroglycan in human myotubes expressing myogenin after 48 hrs by alpha-screen assay
T3 sequence (whole entry): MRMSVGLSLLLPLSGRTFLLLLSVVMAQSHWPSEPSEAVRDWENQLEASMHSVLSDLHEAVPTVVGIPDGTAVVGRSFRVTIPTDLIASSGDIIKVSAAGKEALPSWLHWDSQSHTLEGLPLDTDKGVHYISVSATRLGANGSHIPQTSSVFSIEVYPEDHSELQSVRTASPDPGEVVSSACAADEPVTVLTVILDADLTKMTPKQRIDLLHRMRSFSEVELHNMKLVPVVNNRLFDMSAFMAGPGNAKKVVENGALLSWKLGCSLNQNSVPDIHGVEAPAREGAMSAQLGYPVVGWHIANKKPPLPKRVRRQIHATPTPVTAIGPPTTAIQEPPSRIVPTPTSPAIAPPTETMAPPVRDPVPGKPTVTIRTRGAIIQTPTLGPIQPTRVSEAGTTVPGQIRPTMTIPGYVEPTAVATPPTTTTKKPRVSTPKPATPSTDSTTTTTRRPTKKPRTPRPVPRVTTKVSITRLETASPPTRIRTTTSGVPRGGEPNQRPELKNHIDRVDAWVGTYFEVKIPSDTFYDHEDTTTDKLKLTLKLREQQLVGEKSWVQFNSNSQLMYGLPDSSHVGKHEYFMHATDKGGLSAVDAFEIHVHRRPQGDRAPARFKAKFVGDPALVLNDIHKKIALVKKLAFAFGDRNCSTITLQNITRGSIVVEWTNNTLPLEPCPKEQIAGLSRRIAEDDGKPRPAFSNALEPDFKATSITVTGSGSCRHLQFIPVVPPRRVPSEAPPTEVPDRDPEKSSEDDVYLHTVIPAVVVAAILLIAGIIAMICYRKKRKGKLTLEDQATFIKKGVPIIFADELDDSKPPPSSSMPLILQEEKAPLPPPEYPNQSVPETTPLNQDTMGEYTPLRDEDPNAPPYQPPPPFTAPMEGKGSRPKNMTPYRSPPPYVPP

[4] = target: T3, Dystroglycan 1 (Homo sapiens); assay: Increase of functional O-mannosylation of alpha-dystroglycan in FKRP-deficient human myotubes after 24 hrs by fluorescence assay
[5] = target: T3, Dystroglycan 1 (Homo sapiens); assay: Increase of functional O-mannosylation of alpha-dystroglycan in human myotubes after 48 hrs by immunofluorescence assay
[6] = target: T3, Dystroglycan 1 (Homo sapiens); assay: Increase of functional O-mannosylation of alpha-dystroglycan in human myoblasts after 48 hrs by immunofluorescence assay
[7] = target: T2, Dystroglycan 1 (Mus musculus); assay: Increase of functional O-mannosylation of alpha-dystroglycan in mouse C2C12 cells after 48 hrs by immunofluorescence assay; type: cell-based
[8] = target: T1, Dystroglycan (Cricetulus griseus); assay: Increase of functional O-mannosylation of alpha-dystroglycan in Chinese hamster pro5 cells expressing LARGE after 48 hrs by alpha-screen assay; type: cell-based
[9] = target: T1, Dystroglycan (Cricetulus griseus); assay: Increase of functional O-mannosylation of alpha-dystroglycan in Chinese hamster pgsl-208 cells after 24 hrs by fluorescence assay
[10] = target: T2, Dystroglycan 1 (Mus musculus); assay: Increase of functional O-mannosylation of alpha-dystroglycan in mouse C2C12 cells expressing LARGE after 48 hrs by alpha-screen assay; type: cell-based
[11] = target: T1, Dystroglycan (Cricetulus griseus); assay: Increase of functional O-mannosylation of alpha-dystroglycan in Chinese hamster Lec15.2 cells after 24 hrs by fluorescence assay

- fold change (FC) [1]: < 6
- Activity [2]: Active
- Activity [3]: Active
- Activity [4]: Active
- Activity [5]: inactive
- Activity [6]: inactive
- Activity [7]: Active
- EC1.5 [8]: 1.2 µM
- Activity [9]: inactive
- fold change (FC) [10]: 8
- Activity [11]: inactive
Structure (SMILES): CCC(c1nnnn1Cc1cccs1)N1CCN(c2nc3cc(N)cc(F)c3s2)CC1 (stereo unspecified)
